Test results reported in patent publication US7579474B2, “Substituted piperidines as modulators of dopamine neurotransmission” (NSAB, Filial AF Neurosearch AB, Sverige, priority 2004, dated 2009).
Read-outs that look alike come from different tables or passages of the source.

What was measured:
[1] = format: in vitro ADME; conditions: rat, microsomes, 0.25 h, pH 7.4
Procedure: Rat liver microsomes were isolated as described by Förlin (1980) Effects of Clophen A50, 3-methylcholantrene, pregnenolone-16aq-carbonitrile and Phenobarbital on the hepatic microsomal cytochrome P-450-dependent monooxygenaser system in rainbow trout, salmo garirdneri, of different age and sex. Tox Appl Pharm. 54(3) 420-430, with minor modifications e.g. 3 mL/g liver of a 0.1 M Na/K*PO4 buffer with 0.15 M KCl, pH 7.4, (buffer 1) was added before homogenisation, the homogenate was centrifuged for 20 minutes instead of 15, the supernatant was ultracentrifuged at 100.000 g instead of 105.000 g and the pellet from the ultracentrifugation was resuspended in 1 mL/g liver of 20% v/v 87% glycerol in buffer 1.
1 μL of, 0.2 or 1 mM test substance diluted in water and 10 μL 20 mg/mL rat liver micro-some were mixed with 149 μL 37° C. buffer 1 and the reaction was started by addition of 40 μL 4.1 mg/mL NADPH. After 0 or 15 minutes incubation at 37° C. in a heating block (LAB-LINE, MULTI-BLOK Heater or lab4you, TS-100 Thermo shaker at 700 rpm) the reaction was stopped by addition of 100 μL pure acetonitrile. The protein precipitation was then removed by rejecting the pellet after centrifugation at 10.000 g for 10 minutes (Heraeus, Biofuge fresco) in 4° C. The test compound was analysed using HPLC-MS (Hewlett-Packard 1100MSD Series) with a Zorbax SB-C18 column (2.1*150 mm, 5 μm) using 0.03% formic acid and acetonitrile as mobile phase (gradient) or a Zorbax Eclipse XDB-C18 (3*75 mm, 3.5 μm) using 0.03% acetic acid and acetonitrile as mobile phase (gradient). The 15 min turnover was calculated as the fraction of test compound eliminated after 15 minutes, expressed in percent of 0 min levels, ie 100*[conc test compound at 0 min−concentration at 15 min]/conc at 0 min.
Preparation of liver microsomes was performed as described in Förlin (1980). Protocols for incubation with liver microsomes are referred in Crespi et Stresser (2000), and Renwick et al (2001).

[2] = Oral bioavailability in rat; format: in vivo
Procedure: Experiments are performed 24 hours after implantation of arterial and venous catheters. Test compound is administered orally at 12.5 μmol/kg or intravenously at 5 μmol/kg using the venous catheters, n=3 per group. Arterial blood samples are then taken during […] at 0, 3, 9, 27, 60, 120, 180, 240, 300 and, 360 minutes after administration of the test compound. The oral bioavailability was calculated as the ratio of the AUC (Area under curve) obtained after oral administration over the AUC obtained after intravenous administration for each rat. The parameter AUC was calculated according to the following: AUC: the area under the plasma concentration versus time curve from time zero to the last concentration measured (Clast), calculated by the log/linear trapezoidal method.
The levels of test compound are measured by means of liquid chromatography-mass spectrometry (LC-MS). (Hewlett-Packard 1100MSD Series). The module include a quaternary pump system, vacuum degasser, thermostatted autosampler, thermostatted column compartment, diode array detector and API-ES spray chamber. […]
Extractions procedure: Plasma samples (0.25-0.5 ml) were diluted with water to 1 ml, and 60 pmol (100 μl) internal standard (−)-OSU6241 was added. […] The selective ion (MH^+) was monitored for each Example, and MH^+ 296 for (−)-OSU6241 ((3-[3-(ethylsulfonyl)phenyl]-1-propylpiperidine). […]

[3] = test system: amphetamine-induced hyper-locomotion; assay: Reduction of amphetamine-induced hyper-locomotion; format: in vivo, rat; conditions: rats pretreated with d-amphetamine 1.5 mg/kg i.p., test compound s.c., last 45 minutes of one hour, range covers 95% of fits
Text: In this model, dopaminergic neurotransmission is increased by systemic administration of d-amphetamine at a dose that is sufficiently high to produce a large increase in locomotor activity. The ability of a compound to antagonize this hyperactivity reflects anti-dopaminergic properties, which are part of the dopaminergic stabiliser profile.
Photobeam sensors were spaced 2.5 cm apart.
For most compounds, the evaluation is based on 16 amphetamine pre-treated animals over the dose range 0, 11, 33 and 100 μmol/kg s.c. in one single experiment, with complementary doses in separate experiments. Calculations are based on distance during the last 45 minutes of one hour of measurement. The distances are normalised to amphetamine-control and fitted by least square minimization to the function “End-(End-Control)/(1+(dose/ED50)^Slope)”. […] To estimate confidence levels for the parameters, the fit is repeated 100 times with a random evenly distributed squared weight (0 to 1) for every measurement value. Presented ED50-ranges cover 95% of these values.

Which “turnover at 15 minutes” value [1] does the source give for CCCN1CCC(O)(c2ccc(F)c(C(F)(F)F)c2)CC1 [Example 8, 4-[4-FLUORO-3-(TRIFLUOROMETHYL)PHENYL]-1-PROPYLPIPERIDIN-4-OL] here?
The value was 29%.

What about the bioavailability ([2]; plasma, oral 12.5 μmol/kg vs i.v. 5 μmol/kg, AUC ratio, read-out: oral bioavailability) of the same molecule?
The bioavailability was about 29%.

With CCCN1CCC(c2ccc(F)c(C(F)(F)F)c2)CC1 as the molecule, how does the ED50 ([3]; Rattus norvegicus) read?
Its ED50 is 30 µmol/kg.

With CCN1CCC(O)(c2cccc(C(F)(F)F)c2F)CC1 [Example 3, 4-[2-FLUORO-3-(TRIFLUOROMETHYL)PHENYL]-1-ETHYLPIPERIDIN-4-OL] as the molecule, how does the “turnover at 15 minutes” value [1] read?
Its value is 8%.

What about the bioavailability ([2]; in vivo) of the same molecule?
The bioavailability was about 80%.

With CCCN1CCC(O)(c2cccc(S(C)(=O)=O)c2)CC1 [drawing 51] as the molecule, how does the “ED50 reduction of amphetamine-induced hyper-locomotion” value [3] read?
Its value is “inactive”.
